Experimental data reported in ChEMBL document CHEMBL1909046, “DrugMatrix in vitro pharmacology data”.
pIC50, pKi: −log10 of the molar value.

Columns and labels:
[1] = biological target: T1, 5-hydroxytryptamine receptor 1A (Rattus norvegicus, UniProt P19327); format: cell membranes, CHO-K1, Membrane; settings: for pIC50: read-out: IC50; for pKi: read-out: Ki; for IC50: cho-k1; as to all read-outs here: in other assays of this panel Not Active means under 50% inhibition at 10 µM
T1 sequence (P19327 whole entry): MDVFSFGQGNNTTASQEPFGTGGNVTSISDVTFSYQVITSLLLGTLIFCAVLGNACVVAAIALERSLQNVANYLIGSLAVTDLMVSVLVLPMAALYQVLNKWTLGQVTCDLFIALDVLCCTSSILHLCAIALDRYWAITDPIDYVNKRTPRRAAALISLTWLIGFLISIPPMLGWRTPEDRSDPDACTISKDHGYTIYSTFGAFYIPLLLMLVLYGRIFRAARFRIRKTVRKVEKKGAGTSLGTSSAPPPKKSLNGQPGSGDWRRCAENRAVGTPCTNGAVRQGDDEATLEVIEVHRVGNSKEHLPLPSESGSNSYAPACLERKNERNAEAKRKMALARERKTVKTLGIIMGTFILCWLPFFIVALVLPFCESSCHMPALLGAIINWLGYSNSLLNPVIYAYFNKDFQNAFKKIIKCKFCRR

[2] = biological target: Beta-3 adrenergic receptor (Homo sapiens, UniProt P13945); test: DRUGMATRIX: Adrenergic beta3 radioligand binding (ligand: [125I] Cyanopindolol); format: cell membranes, HEK293, Membrane; settings: Not Active = under 50% inhibition at 10 µM; for IC50: hek293
[3] = DRUGMATRIX: Tumor Necrosis Factor (TNF), Non-Selective radioligand binding (ligand: [125I] TNF-alpha); format: cell membranes, Membrane; settings: u-937; Not Active = under 50% inhibition at 10 µM
[4] = biological target: T2, Alpha-1D adrenergic receptor (Homo sapiens, UniProt P25100); format: cell membranes, HEK293, Membrane; settings: for pIC50: read-out: IC50; for pKi: read-out: Ki; for IC50: hek293; as to all read-outs here: in other assays of this panel Not Active means under 50% inhibition at 10 µM
T2 sequence (P25100 whole entry): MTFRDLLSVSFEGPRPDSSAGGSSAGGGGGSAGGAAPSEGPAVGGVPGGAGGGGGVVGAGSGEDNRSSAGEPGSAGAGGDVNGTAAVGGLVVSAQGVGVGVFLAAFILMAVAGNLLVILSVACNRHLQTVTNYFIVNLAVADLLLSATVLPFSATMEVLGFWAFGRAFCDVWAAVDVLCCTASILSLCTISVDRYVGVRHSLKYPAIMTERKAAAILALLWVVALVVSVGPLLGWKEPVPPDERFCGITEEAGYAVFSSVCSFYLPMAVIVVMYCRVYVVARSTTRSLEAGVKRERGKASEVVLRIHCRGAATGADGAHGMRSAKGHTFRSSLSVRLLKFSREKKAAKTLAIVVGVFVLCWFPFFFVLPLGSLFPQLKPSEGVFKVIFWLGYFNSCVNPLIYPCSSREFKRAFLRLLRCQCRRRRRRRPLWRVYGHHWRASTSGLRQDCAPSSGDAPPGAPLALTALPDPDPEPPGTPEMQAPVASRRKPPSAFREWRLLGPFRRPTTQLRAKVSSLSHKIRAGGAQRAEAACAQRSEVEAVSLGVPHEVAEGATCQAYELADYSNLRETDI

[5] = biological target: 5-hydroxytryptamine receptor 6 (Homo sapiens, UniProt P50406); format: cell membranes, HeLa, Membrane; settings: for pIC50: read-out: IC50; for pKi: read-out: Ki; for IC50: hela; as to all read-outs here: in other assays of this panel Not Active means under 50% inhibition at 10 µM
[6] = biological target: T3, Nitric oxide synthase, inducible (Mus musculus, UniProt P29477); design: species or system Escherichia coli;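 also: inhibition of iNOS enzyme activity measured with L-arginine as substrate; in other assays of this panel Not Active means under 50% inhibition at 10 µM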
T3 sequence (P29477 whole entry): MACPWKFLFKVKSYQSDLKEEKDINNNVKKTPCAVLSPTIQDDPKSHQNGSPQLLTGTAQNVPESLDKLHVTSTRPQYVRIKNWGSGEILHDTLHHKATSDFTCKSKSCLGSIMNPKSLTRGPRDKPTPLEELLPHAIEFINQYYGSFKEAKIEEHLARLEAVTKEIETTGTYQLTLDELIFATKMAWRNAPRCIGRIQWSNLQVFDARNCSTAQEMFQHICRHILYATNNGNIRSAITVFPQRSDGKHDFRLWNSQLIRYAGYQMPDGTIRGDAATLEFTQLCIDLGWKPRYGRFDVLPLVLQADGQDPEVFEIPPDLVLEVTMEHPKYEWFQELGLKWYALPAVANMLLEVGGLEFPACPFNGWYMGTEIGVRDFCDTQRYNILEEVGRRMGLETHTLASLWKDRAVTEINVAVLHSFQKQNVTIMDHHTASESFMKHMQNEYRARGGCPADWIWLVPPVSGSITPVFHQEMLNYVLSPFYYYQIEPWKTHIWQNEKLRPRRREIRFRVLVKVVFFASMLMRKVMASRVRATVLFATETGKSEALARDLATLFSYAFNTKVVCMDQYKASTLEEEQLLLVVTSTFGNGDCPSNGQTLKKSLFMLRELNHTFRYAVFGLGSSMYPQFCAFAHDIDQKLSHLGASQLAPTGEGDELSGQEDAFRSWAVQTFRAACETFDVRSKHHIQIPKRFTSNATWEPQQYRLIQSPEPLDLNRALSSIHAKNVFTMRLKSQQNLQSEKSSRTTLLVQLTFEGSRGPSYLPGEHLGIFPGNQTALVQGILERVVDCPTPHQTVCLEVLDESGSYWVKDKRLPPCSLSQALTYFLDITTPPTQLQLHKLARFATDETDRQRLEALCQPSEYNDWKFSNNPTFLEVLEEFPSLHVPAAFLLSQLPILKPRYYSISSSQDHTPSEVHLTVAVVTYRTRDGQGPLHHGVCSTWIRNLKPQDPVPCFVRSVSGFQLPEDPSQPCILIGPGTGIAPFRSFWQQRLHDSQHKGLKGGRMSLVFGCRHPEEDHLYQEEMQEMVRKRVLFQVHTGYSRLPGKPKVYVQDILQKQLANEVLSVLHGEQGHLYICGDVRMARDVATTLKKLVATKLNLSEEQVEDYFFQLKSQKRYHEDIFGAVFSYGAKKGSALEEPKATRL

Chain of 5-hydroxytryptamine receptor 6 (P50406 whole entry): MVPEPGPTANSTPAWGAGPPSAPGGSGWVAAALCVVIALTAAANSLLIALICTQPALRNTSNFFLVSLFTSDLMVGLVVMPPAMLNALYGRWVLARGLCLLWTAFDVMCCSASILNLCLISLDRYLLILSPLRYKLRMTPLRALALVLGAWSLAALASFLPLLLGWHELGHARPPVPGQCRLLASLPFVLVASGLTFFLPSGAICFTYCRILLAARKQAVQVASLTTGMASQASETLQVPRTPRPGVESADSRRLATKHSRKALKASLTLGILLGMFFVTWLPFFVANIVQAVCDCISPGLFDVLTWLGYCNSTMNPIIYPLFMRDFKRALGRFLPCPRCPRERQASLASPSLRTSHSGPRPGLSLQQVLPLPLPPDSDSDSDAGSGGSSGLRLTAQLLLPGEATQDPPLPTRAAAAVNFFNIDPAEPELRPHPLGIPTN
Chain of Beta-3 adrenergic receptor (P13945 whole entry): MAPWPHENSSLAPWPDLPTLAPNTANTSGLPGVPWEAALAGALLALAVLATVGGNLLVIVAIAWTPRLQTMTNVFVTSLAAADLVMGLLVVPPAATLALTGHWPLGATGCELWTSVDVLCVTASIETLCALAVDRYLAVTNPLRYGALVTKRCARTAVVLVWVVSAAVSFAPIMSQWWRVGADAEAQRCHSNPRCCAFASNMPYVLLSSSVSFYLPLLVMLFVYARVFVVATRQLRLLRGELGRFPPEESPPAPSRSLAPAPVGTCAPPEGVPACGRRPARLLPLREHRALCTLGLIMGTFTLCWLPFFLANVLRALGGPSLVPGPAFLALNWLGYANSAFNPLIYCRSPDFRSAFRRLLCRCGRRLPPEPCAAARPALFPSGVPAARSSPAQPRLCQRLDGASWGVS

Structure (SMILES)	pIC50 [1]	pKi [1]	pIC50 ([2]; read-out: IC50)	pKi ([2]; read-out: Ki)	IC50 [3]	Ki [3]	pIC50 [4]	pKi [4]	pIC50 [5]	pKi [5]	IC50 [6]	IC50 [1]	IC50 [2]	IC50 [4]	IC50 [5]
CC(C)[C@@]1(NC(=O)[C@@H]2C[C@@H]3c4cccc5[nH]cc(c45)C[C@H]3N(C)C2)O[C@@]2(O)[C@@H]3CCCN3C(=O)[C@H](Cc3ccccc3)N2C1=O.CS(=O)(=O)O [DIHYDROERGOCRISTINE MESYLATE]	9.14	9.39	5.48	5.61	Not Active	Not Active	8.13	8.44	7.38	7.72	Not Active				
CC(=O)O[C@@]12CO[C@@H]1C[C@H](O)[C@@]1(C)C(=O)[C@H](O)C3=C(C)[C@@H](OC(=O)[C@H](O)[C@@H](NC(=O)OC(C)(C)C)c4ccccc4)C[C@@](O)([C@@H](OC(=O)c4ccccc4)[C@H]21)C3(C)C.O.O.O [DOCETAXEL]					Not Active	Not Active					Not Active	Not Active	Not Active	Not Active	Not Active
C[C@H]1c2cccc(O)c2C(=O)C2=C(O)[C@]3(O)C(=O)C(C(N)=O)=C(O)[C@@H](N(C)C)[C@@H]3[C@@H](O)[C@@H]21.O [DOXYCYCLINE]					Not Active	Not Active					Not Active	Not Active	Not Active	Not Active	Not Active
O=C(CCCN1CC=C(n2c(=O)[nH]c3ccccc32)CC1)c1ccc(F)cc1 [DROPERIDOL]	6.62	6.86			Not Active	Not Active	7.08	7.39			Not Active		Not Active		Not Active
CC(C)[C@H]1C(=O)N2CCC[C@H]2[C@]2(O)O[C@](NC(=O)[C@@H]3C=C4c5cccc6[nH]cc(c56)C[C@H]4N(C)C3)(C(C)C)C(=O)N12 [ERGOCORNINE]	8.51	8.75			Not Active	Not Active	7.74	8.06	7.82	8.15	Not Active		Not Active		
C[C@]12CC[C@@H]3c4ccc(O)cc4CC[C@H]3[C@@H]1CCC2=O [ESTRONE]					Not Active	Not Active					Not Active	Not Active	Not Active	Not Active	Not Active
OC(Cn1cncn1)(Cn1cncn1)c1ccc(F)cc1F [FLUCONAZOLE]					Not Active	Not Active					Not Active	Not Active	Not Active	Not Active	Not Active
CC(C)C(=O)Nc1ccc([N+](=O)[O-])c(C(F)(F)F)c1 [FLUTAMIDE]					Not Active	Not Active			4.75	5.08	Not Active	Not Active	Not Active	Not Active	
N=C(N)NCCN1CCCCCCC1 [GUANETHIDINE]					Not Active	Not Active					Not Active	Not Active	Not Active	Not Active	Not Active
CC1(C)O[C@@H]2C[C@H]3[C@@H]4CCC5=CC(=O)CC[C@]5(C)[C@@]4(F)[C@@H](O)C[C@]3(C)[C@]2(C(=O)CCl)O1 [HALCINONIDE]					Not Active	Not Active					Not Active	Not Active	Not Active	Not Active	Not Active
O=c1[nH]c(=O)n([C@H]2C[C@H](O)[C@@H](CO)O2)cc1I [IDOXURIDINE]					Not Active	Not Active					Not Active	Not Active	Not Active	Not Active	Not Active
CC1Cc2ccccc2N1NC(=O)c1ccc(Cl)c(S(N)(=O)=O)c1 (configuration not stated) [INDAPAMIDE]					Not Active	Not Active					Not Active	Not Active	Not Active	Not Active	Not Active
Nc1nc(N)nc(-c2cc(Cl)ccc2Cl)n1.O=C(O)/C=C\C(=O)O [IRSOGLADINE MALEATE]					Not Active	Not Active					Not Active	Not Active	Not Active	Not Active	Not Active
CCC(C)n1ncn(-c2ccc(N3CCN(c4ccc(OCC5COC(Cn6cncn6)(c6ccc(Cl)cc6Cl)O5)cc4)CC3)cc2)c1=O (configuration not stated) [ITRACONAZOLE]					Not Active	Not Active					Not Active	Not Active	Not Active	Not Active	Not Active
CCCCN1CCCC[C@H]1C(=O)Nc1c(C)cccc1C [LEVOBUPIVACAINE]					Not Active	Not Active					Not Active	Not Active	Not Active	Not Active	Not Active
CCCCc1nc(Cl)c(CO)n1Cc1ccc(-c2ccccc2-c2nnn[nH]2)cc1 [LOSARTAN]					Not Active	Not Active					Not Active	Not Active	Not Active	Not Active	Not Active
Sc1ncnc2nc[nH]c12 [MERCAPTOPURINE ANHYDROUS]					Not Active	Not Active					Not Active	Not Active	Not Active	Not Active	Not Active
C[C@](N)(Cc1ccc(O)c(O)c1)C(=O)O [METHYLDOPA]					Not Active	Not Active					Not Active	Not Active	Not Active	Not Active	Not Active
C[C@]12CCC(=O)C=C1CC[C@@H]1[C@@H]2CC[C@@]2(C)[C@H]1CC[C@]2(C)O [METHYLTESTOSTERONE]					Not Active	Not Active					Not Active	Not Active	Not Active	Not Active	Not Active
Cc1ccccc1N1C(=O)c2cc(S(N)(=O)=O)c(Cl)cc2NC1C (configuration not stated) [METOLAZONE]					Not Active	Not Active					Not Active	Not Active	Not Active	Not Active	Not Active
COCCc1ccc(OCC(O)CNC(C)C)cc1 (configuration not stated) [METOPROLOL]					Not Active	Not Active					Not Active	Not Active	Not Active	Not Active	Not Active
